Laboratory results taken from the NIST ThermoML archive (doi:10.1016/j.fluid.2016.04.012).
Numbers after ± are expanded uncertainties.

Details: Liquid, Closed cell (Static) method

vapor or sublimation pressure (337.85 K) | vapor or sublimation pressure (338.65 K) | Compound
101.3 ± 1.1 kPa | – | CO [methanol]
– | 101.3 ± 1.1 kPa | C1CCOC1 [tetrahydrofuran]
